Data taken from patent publication US20020055528A1, “Artemisinin analogs having antimalarial, antiproliferative, and antitumor activities and chemoselective methods of making the same” (priority 1999, published 2002).

How the values were obtained:
Format in all cases: cell-based
SN12C = assay: NCI 60 cell line screen (SRB), Renal Cancer
HCT-15 = assay: NCI 60 cell line screen (SRB), Colon Cancer; details: PG=0
SW-620 = assay: NCI 60 cell line screen (SRB), Colon Cancer; details: for Log10TGI: PG=0
NCI-H322M = assay: NCI 60 cell line screen (SRB), Non-Small Cell Lung Cancer; details: for Log10GI50: PG=+50
MALME-3M = assay: NCI 60 cell line screen (SRB), Melanoma; details: for Log10TGI: PG=0; for Log10GI50: Table IV (LC50, PG=−50)
NCI/ADR-RES = assay: NCI 60 cell line screen (SRB), Breast Cancer
OVCAR-4 = assay: NCI 60 cell line screen (SRB), Ovarian Cancer
A498 = assay: NCI 60 cell line screen (SRB), Renal Cancer
K-562 = assay: NCI 60 cell line screen (SRB), Leukemia; details: for Log10TGI: PG=0
HOP-62 = assay: NCI 60 cell line screen (SRB), Non-Small Cell Lung Cancer
ACHN = assay: NCI 60 cell line screen (SRB), Renal Cancer; details: PG=0
MDA-N = assay: NCI 60 cell line screen (SRB), Breast Cancer; details: for Log10TGI: PG=0
PC-3 = assay: NCI 60 cell line screen (SRB), Prostate Cancer; details: PG=0
HS 578T = assay: NCI 60 cell line screen (SRB), Breast Cancer; details: PG=+50
MCF7 = assay: NCI 60 cell line screen (SRB), Breast Cancer
MDA-MB231/ATCC = assay: NCI 60 cell line screen (SRB), Breast Cancer; details: MDA- (first line of MDA-MB231/ATCC); PG=0
RXF 393 = assay: NCI 60 cell line screen (SRB), Renal Cancer; details: for Log10TGI: PG=0
DU-145 = assay: NCI 60 cell line screen (SRB), Prostate Cancer
U251 = assay: NCI 60 cell line screen (SRB), CNS Cancer; details: for Log10TGI: PG=0
NCI-H460 = assay: NCI 60 cell line screen (SRB), Non-Small Cell Lung Cancer; details: PG=0
MDA-MB-435 = assay: NCI 60 cell line screen (SRB), Breast Cancer
EKVX = assay: NCI 60 cell line screen (SRB), Non-Small Cell Lung Cancer
[1] = system: MB231/ATCC (second line of the wrapped label, with values of its own); assay: NCI 60 cell line screen (SRB), Breast Cancer

CC(=O)O[C@H]1C(=O)[C@@]2(C)[C@H]([C@H](OC(=O)c3ccccc3)[C@]3(O)C[C@H](OC(=O)[C@H](O)[C@@H](NC(=O)c4ccccc4)c4ccccc4)C(C)=C1C3(C)C)[C@]1(OC(C)=O)CO[C@@H]1C[C@@H]2O [Paclitaxel, paclitaxel, reference compound]
Log10GI50 (SN12C; SNI2C, PG=+50): −9.53 log10M | Log10GI50 (SN12C; Table IV (LC50, PG=−50), SN12C): >−4.00 log10M | Log10TGI (HCT-15): >−4.00 log10M | Log10TGI (SW-620): >−4.00 log10M | Log10GI50 (SW-620; PG=+50): −11.60 log10M | Log10GI50 (NCI-H322M): −10.12 log10M | Log10TGI (MALME-3M): −4.46 log10M | Log10GI50 (MALME-3M): −4.11 log10M | Log10TGI (NCI/ADR-RES; PG=0): >−4.00 log10M | Log10GI50 (NCI/ADR-RES; PG=+50): −8.48 log10M | Log10GI50 (NCI/ADR-RES; Table IV (LC50, PG=−50)): >−4.00 log10M | Log10GI50 (OVCAR-4; OVCAR-4, PG=+50): −5.00 log10M | Log10TGI (OVCAR-4; OVCAR−4, PG=0): −4.19 log10M | Log10GI50 (OVCAR-4; Table IV (LC50, PG=−50), OVCAR−4): >−4.00 log10M | Log10GI50 (A498; PG=+50): −7.14 log10M | Log10GI50 (A498; Table IV (LC50, PG=−50)): −4.13 log10M | Log10TGI (K-562): −10.83 log10M | Log10GI50 (K-562; PG=+50): −10.83 log10M | Log10GI50 (K-562; Table IV (LC50, PG=−50)): >−4.00 log10M | Log10GI50 (HOP-62; PG=+50): −9.67 log10M | Log10TGI (ACHN): −4.90 log10M | Log10TGI (MDA-N): −6.32 log10M | Log10GI50 (MDA-N; PG=+50): −9.31 log10M | Log10GI50 (MDA-N; Table IV (LC50, PG=−50)): >−4.00 log10M | Log10TGI (PC-3): >−4.00 log10M | Log10GI50 (HS 578T): <-13.00 log10M | Log10GI50 (MCF7; PG=+50): −11.69 log10M | Log10GI50 (MCF7; Table IV (LC50, PG=−50)): >−4.00 log10M | Log10TGI (MDA-MB231/ATCC): −4.84 log10M | Log10TGI (RXF 393): >−4.00 log10M | Log10GI50 (RXF 393; PG=+50): −8.32 log10M | Log10GI50 (RXF 393; Table IV (LC50, PG=−50)): >−4.00 log10M | Log10TGI (DU-145; PG=0): >−4.00 log10M | Log10GI50 (DU-145; PG=+50): −9.38 log10M | Log10GI50 (DU-145; Table IV (LC50, PG=−50)): >−4.00 log10M | Log10TGI (U251): −4.32 log10M | Log10GI50 (U251; PG=+50): −11.29 log10M | Log10GI50 (U251; Table IV (LC50, PG=−50)): −4.15 log10M | Log10TGI (NCI-H460): −4.46 log10M | Log10GI50 (MDA-MB-435; MDA-MB−435, PG=+50): <-13.00 log10M

C[C@@H]1CC[C@H]2[C@@H](C)C(=O)O[C@@H]3O[C@]4(C)CC[C@@H]1[C@]32OO4 [Artemisinin, artemisinin]
Log10TGI (SN12C; SN12C, PG=0): >−4.00 log10M | Log10GI50 (SN12C; SNI2C, PG=+50): −4.21 log10M | Log10GI50 (SN12C; Table IV (LC50, PG=−50), SN12C): >−4.00 log10M | Log10TGI (HCT-15): >−4.00 log10M | Log10TGI (SW-620): >−4.00 log10M | Log10TGI (NCI-H322M; PG=0): >−4.00 log10M | Log10GI50 (NCI-H322M): >−4.00 log10M | Log10TGI (EKVX; PG=0): >−4.00 log10M | Log10GI50 (EKVX; PG=+50): −4.17 log10M | Log10GI50 (EKVX; Table IV (LC50, PG=−50)): >−4.00 log10M | Log10TGI (MALME-3M): −4.06 log10M | Log10GI50 (MALME-3M): >−4.00 log10M | Log10TGI (A498; PG=0): >−4.00 log10M | Log10GI50 (A498; PG=+50): >−4.00 log10M | Log10GI50 (A498; Table IV (LC50, PG=−50)): >−4.00 log10M | Log10TGI (K-562): −4.00 log10M | Log10GI50 (K-562; PG=+50): −4.33 log10M | Log10GI50 (K-562; Table IV (LC50, PG=−50)): >−4.00 log10M | Log10TGI (HOP-62; PG=0): >−4.00 log10M | Log10GI50 (HOP-62; PG=+50): >−4.00 log10M | Log10GI50 (HOP-62; Table IV (LC50, PG=−50)): >−4.00 log10M | Log10TGI (ACHN): >−4.00 log10M | Log10TGI (MDA-N): −4.00 log10M | Log10GI50 (MDA-N; PG=+50): −4.06 log10M | Log10GI50 (MDA-N; Table IV (LC50, PG=−50)): >−4.00 log10M | Log10TGI (PC-3): −4.00 log10M | Log10TGI (MCF7; PG=0): >−4.00 log10M | Log10GI50 (MCF7; PG=+50): >−4.00 log10M | Log10GI50 (MCF7; Table IV (LC50, PG=−50)): >−4.00 log10M | Log10TGI (MDA-MB231/ATCC): −4.00 log10M | Log10TGI (RXF 393): >−4.00 log10M | Log10GI50 (RXF 393; PG=+50): −4.08 log10M | Log10GI50 (RXF 393; Table IV (LC50, PG=−50)): >−4.00 log10M | Log10TGI (U251): >−4.00 log10M | Log10GI50 (U251; PG=+50): >−4.00 log10M | Log10GI50 (U251; Table IV (LC50, PG=−50)): >−4.00 log10M | Log10TGI (MDA-MB-435; MDA-MB-435, PG=0): >−4.00 log10M | Log10GI50 (MDA-MB-435; MDA-MB−435, PG=+50): >−4.00 log10M | Log10GI50 (MDA-MB-435; Table IV (LC50, PG=−50), MDA-MB-435): >−4.00 log10M | Log10TGI ([1]; PG=0): >−4.00 log10M | Log10GI50 ([1]; PG=+50): >−4.00 log10M | Log10GI50 ([1]; Table IV (LC50, PG=−50)): >−4.00 log10M
